How the values were obtained:
Type in all cases: cell-based
Escherichia coli [1] = test: Variant Micromax assay of cell enlargement by low-dose mitomycin C after tobramycin (Example 8)
Protocol: As an example, two strains of Escherichia coli exponentially growing in Mueller-Hinton broth were incubated under four different conditions and then assayed. One strain was susceptible and the other resistant to the aminoglycoside tobramycin (an inhibitor of protein synthesis). For the purpose of rapidly distinguishing susceptible and non-susceptible strains to tobramycin each strain was incubated under four conditions.
A portion of each strain was incubated with tobramycin at 4 μg/ml for 90 minutes. As described previously, this dose is indicated by the CLSI as the breakpoint of susceptibility to tobramycin in the standard antibiogram based on microdilution. Another portion of both strains was incubated in Mitomycin C at 0.5 μg/ml for 60 minutes. Still another portion of each strain was incubated with tobramycin at 4 μg/ml for 30 minutes followed by mitomycin C at 0.5 μg/ml for 60 minutes, without removing the tobramycin. A final portion of both strains was not incubated with either antibiotic.
After the incubation, cells were processed using a variant Micromax technology to visualize any enlargement or not of the bacteria. Samples from cells from the culture were immersed in an agarose microgel on a slide, dried, stained with a highly sensitive fluorochrome for DNA like SYBR Gold and visualized under fluorescence microscopy to visualize cell shape and size. Images were similar those correspondent to the previous figure.

Escherichia coli [2] = test: Micromax assay of ciprofloxacin-induced DNA fragmentation after a protein synthesis inhibitor (Example 1); conditions: for DNA fragmentation of nucleoids: tobramycin 4 μg/ml 10 min followed by ciprofloxacin 1 μg/ml 30 min
Protocol: As an exemplification of the principals previously described, two strains of Escherichia coli exponentially growing in Mueller-Hinton broth were assayed (FIGS. 1-6). The first strain of Escherichia coli was a TG1 strain susceptible to both the aminoglycoside tobramycin (an inhibitor of protein synthesis) and the quinolone ciprofloxacin (an agent which induces DNA fragmentation by trapping of topoisomerases in DNA) (FIGS. 1-3). The second strain was a clinical isolate resistant to tobramycin and susceptible to ciprofloxacin (FIGS. 4-6). Four treatments were applied to each strain to rapidly distinguish the susceptible and the resistant strain to tobramycin.
One portion of both bacterial strains was incubated with tobramycin at 4 μg/ml for 40 minutes (FIGS. 1 and 4), a dosage indicated by the CLSI as the breakpoint of susceptibility to tobramycin in the standard antibiogram based on microdilution. Another portion of both strains was incubated with ciprofloxacin at 1 μg/ml for 30 min (FIGS. 2 and 5). Still another portion of both strains was incubated with tobramycin at 4 μg/ml for 10 min followed by ciprofloxacin at 1 μg/ml for 30 min, without removing the tobramycin (FIGS. 3 and 6). A final portion was left with no antibiotic.
After each incubation cells were processed using the variant of the Micromax technology to visualize the nucleoids, i.e. bacterial chromosomal DNA, in all the cells of the population. Cells from each culture were immersed in an agarose microgel on a slide and incubated with a specific lysing solution to remove the cell wall in all the cells and release in the microgel the nucleoids contained inside the bacteria. These are dried, stained with a high sensitive fluorochrome for DNA like SYBR Gold and visualized under fluorescence microscopy. FIGS. 1-6 depicts representative images captured under each of the conditions described below.
The above described methodology was employed to rapidly determine the susceptibility of 12 strains of E. coli to tobramycin. One portion of each bacterial strain was incubated with tobramycin at the susceptibility breakpoint dosage, 4 μg/ml, for 40 min. A portion of each strain was incubated with ciprofloxacin at 1 μg/ml for 30 min. Still another portion of each strain was incubated with tobramycin at 4 μg/ml for 10 min followed by ciprofloxacin at 1 μg/ml for 30 min, without removing the tobramycin. A final portion of each strain was left with no antibiotic. E. coli strains were identified as susceptible or not based on the levels of DNA fragmentation in the portion of each strain incubated with ciprofloxacin and the portion incubated with tobramycin and ciprofloxacin.
The principals exemplified in Example 1 were confirmed with the aminoglycoside amikacin. Briefly, a susceptible and resistant strain of E. coli were exposed to similar conditions to those described in Example 1, except that amikacin was utilized as the protein synthesis inhibiting antibiotic. Specifically, each was strain subjected to four treatments. One portion received no antibiotics, and another portion received only a quinolone, such as ciprofloxacin or norfloxacin to induce DNA fragmentation. Still another portion received the protein synthesis inhibiting antibiotic aminoglycoside amikacin, followed by the quinolone. Another portion received only amikacin. A final portion received neither antibiotic.
The principals exemplified in Example 1 were further confirmed with the aminoglycoside gentamicin. Briefly, the rapid test was performed on 15 isolated E. coli strains according to the methodology described above, except that gentamicinin was utilized as the protein synthesis inhibiting antibiotic. Suppressed DNA fragmentation were used to characterize bacterial susceptibility and those characterizations were verified with the standard antibiogram for gentamicin by microdilution. […]

Pseudomonas aeruginosa = test: Variant Micromax assay of cell wall damage by meropenem after tobramycin (Example 5); conditions: for release of nucleoids (cell wall damage): tobramycin 4 μg/ml 15 min followed by meropenem 0.2 μg/ml 60 min
Source text: As an exemplification of this principal, FIGS. 19-24 illustrates assays of two strains of Pseudomonas aeruginosa exponentially growing in Mueller-Hinton broth. Both strains were both susceptible to the β-lactam meropenem, which inhibits peptidoglycan synthesis. One strain was susceptible (FIGS. 19-21) and the other resistant (FIGS. 22-24) to the aminoglycoside tobramycin (inhibitor of protein synthesis).
For the purpose of rapidly distinguishing susceptible and resistant (i.e. non-susceptible) strains to tobramycin each strain was subjected to four treatments. A portion of each strain was incubated with tobramycin at 4 μg/ml for 75 min (FIGS. 19 and 22). The dose utilized, was indicated by the CLSI as the breakpoint of susceptibility to tobramycin. FIGS. 20 and 23 illustrate an assay from another portion of each strain, which was incubated with Meropenem at 0.2 μg/ml for 60 min. FIGS. 21 and 24, illustrate assays from still another portion of both strains which was incubated with tobramycin at 4 μg/ml for 15 min followed by meropenem at 0.2 μg/ml for 60 min, without removing the tobramycin. Still another portion of both strains was maintained without the addition of either antibiotic.
After incubation cells were processed using a variant Micromax technology to visualize the affectation or not of the cell wall based on the release or not of the nucleoids contained inside the bacteria. In the same manner described previously, samples from cells from the culture are immersed in an agarose microgel on a slide and incubated with a specific lysing solution that removes the cell wall only in those bacteria whose peptidoglycan was affected, thus releasing in the microgel the nucleoids contained inside. […] The processed bacteria in microgel are dried, stained with a high sensitive fluorochrome for DNA like SYBR Gold and visualized under fluorescence microscopy.

[3] = rapid test, confirmed by microdilution antibiogram, 12 strains for tobramycin, 15 for gentamicin

For `NC[C@H]1O[C@H](O[C@H]2[C@H](O)[C@@H](O[C@H]3O[C@H](CO)[C@@H](O)[C@H](N)[C@H]3O)[C@H](N)C[C@@H]2N)[C@H](N)C[C@@H]1O` [tobramycin], the cell enlargement (Escherichia coli [1]; tobramycin 4 μg/ml 30 minutes followed by mitomycin C 0.5 μg/ml 60 minutes, tobramycin-resistant strain) was “appeared enlarged”, the “bacterial shape and size” value (Escherichia coli [1]; tobramycin alone 4 μg/ml 90 minutes, both strains) was “does not affect bacterial shape and size” and the “E. coli strains identified as non-susceptible (resistant)” value (Escherichia coli [2]; [3]) was “three of the twelve strains as non-susceptible”. The “E. coli strains identified as susceptible” value (Escherichia coli [2]; [3]) was “nine of the twelve strains as susceptible”, the “DNA fragmentation of nucleoids” value (Escherichia coli [2]; tobramycin-resistant clinical isolate) was “the DNA was extensively fragmented” and the “DNA fragmentation of nucleoids” value (Escherichia coli [2]; tobramycin-susceptible TG1 strain) was “nucleoids with reduced level of DNA fragmentation”. For the same compound, the modification of nucleoids (Escherichia coli [2]; tobramycin alone 4 μg/ml 40 min, both tobramycin-susceptible and -resistant strains) was “did not result in any modifications of the nucleoids”, the “release of nucleoids (cell wall damage)” value (Pseudomonas aeruginosa; tobramycin-resistant strain) was “the nucleoids were released” and the “release of nucleoids (cell wall damage)” value (Pseudomonas aeruginosa; tobramycin-susceptible strain) was “unchanged, non-lysed bacteria”. For the same compound, the “cell wall lysis and bacterial shape” value (Pseudomonas aeruginosa; tobramycin alone 4 μg/ml 75 min, both strains) was “does not result in cell wall lysis”.
